Measurements published in patent publication US20110144175A1, “METHOD FOR CONTROLLING DEGRADATION OF AGRICULTURAL CHEMICAL ACTIVE INGREDIENT” (priority 2008, published 2011).

Assay: Accelerated preservation test of dustable powder (Cyazofamid content by HPLC)
Type: physicochemical
Method: The dustable powder obtained by Example 1 or Comparative Example was subjected to an accelerated preservation at 54° C. for 14 days, and then the Cyazofamid content in the dustable powder was measured by an HPLC (high performance liquid chromatography) and degradation ratio (%) of Cyazofamid was calculated by the following formula. In this connection, the Cyazofamid content in the dustable powder preserved at 4° C. was measured at the time of measuring the Cyazofamid content in the dustable powder after accelerated preservation, and the value was used as the initial stage content. Degradation ratio (%)=(initial stage content−content after accelerated preservation)/initial stage content×100

Substance | Degradation Ratio (%) of Cyazofamid [%]
Epoxidized Soybean Oil | 5
Polyoxyethylene Castor Oil | 7
